Reference: patent US20150050301A1, “Contiguous Overlapping Peptides for Treatment of House Dust Mites Allergy” (ANERGIS S.A., priority 2013, published 2015)
Residues, ends and D or L forms follow the SMILES beside them.

Test: Solubility Characteristics of COPs
Assay type: physicochemical
Conditions: for Conc.: Solvent H2O
Procedure: All COPs were synthesized by solid phase fmoc chemistry at research scale to allow determination of IgE binding. […] Peptides were resuspended either in water at 2 mg/ml or at 10 to 20 mg per ml in DMSO (see Table 1) and frozen in aliquots.

Row | solubility in words | Conc. [µg/mL] | SMILES
1 | solubility in water | 4700 | CC[C@H](C)[C@H](NC(=O)CNC(=O)[C@H](Cc1ccccc1)NC(=O)[C@H](CCCNC(=N)N)NC(=O)[C@H](CCC(N)=O)NC(=O)[C@H](C)NC(=O)[C@H](CC(N)=O)NC(=O)[C@@H]1CCCN1C(=O)[C@H](CCCNC(=N)N)NC(=O)[C@H](CCCNC(=N)N)NC(=O)[C@H](CS)NC(=O)[C@H](CO)NC(=O)[C@H](CCC(N)=O)NC(=O)[C@H](CCC(=O)O)NC(=O)[C@H](CCCNC(=N)N)NC(=O)[C@H](C)N)C(=O)N[C@@H](CO)C(=O)N[C@@H](CC(N)=O)C(=O)N[C@@H](Cc1ccc(O)cc1)C(=O)N[C@@H](CS)C(=O)N[C@@H](CCC(N)=O)C(=O)N[C@H](C(=O)N[C@@H](Cc1ccc(O)cc1)C(=O)N1CCC[C@H]1C(=O)N1CCC[C@H]1C(=O)N[C@@H](CC(N)=O)C(=O)N[C@H](C(=O)N[C@@H](CC(N)=O)C(=O)N[C@@H](CCCCN)C(=O)N[C@H](C(=O)N[C@@H](CCCNC(=N)N)C(=O)N[C@@H](CCC(=O)O)C(=O)O)[C@@H](C)CC)C(C)C)[C@@H](C)CC [AllerDM1.5a] (H-AREQSCRRPNAQRFGISNYCQIYPPNVNKIRE-OH; N-terminus and C-terminus assumed)
2 | solubility in water | 2000 | CC[C@H](C)[C@H](NC(=O)CNC(=O)[C@H](Cc1ccccc1)NC(=O)[C@H](CCCNC(=N)N)NC(=O)[C@H](CCC(N)=O)NC(=O)[C@H](C)NC(=O)[C@H](CC(N)=O)NC(=O)[C@@H]1CCCN1C(=O)[C@H](CCCNC(=N)N)NC(=O)[C@H](CCCNC(=N)N)NC(=O)[C@H](CS)NC(=O)[C@H](CO)NC(=O)[C@H](CCC(N)=O)NC(=O)[C@H](CCC(=O)O)NC(=O)[C@H](CCCNC(=N)N)NC(=O)[C@H](C)NC(=O)[C@@H](NC(=O)[C@H](Cc1ccc(O)cc1)NC(=O)[C@@H](N)CCCNC(=N)N)C(C)C)C(=O)N[C@@H](CO)C(=O)N[C@@H](CC(N)=O)C(=O)N[C@@H](Cc1ccc(O)cc1)C(=O)N[C@@H](CS)C(=O)N[C@@H](CCC(N)=O)C(=O)N[C@H](C(=O)N[C@@H](Cc1ccc(O)cc1)C(=O)N1CCC[C@H]1C(=O)N1CCC[C@H]1C(=O)N[C@@H](CC(N)=O)C(=O)N[C@H](C(=O)N[C@@H](CC(N)=O)C(=O)N[C@@H](CCCCN)C(=O)N[C@H](C(=O)N[C@@H](CCCNC(=N)N)C(=O)N[C@@H](CCC(=O)O)C(=O)O)[C@@H](C)CC)C(C)C)[C@@H](C)CC [AllerDM1.54] (H-RYVAREQSCRRPNAQRFGISNYCQIYPPNVNKIRE-OH; N-terminus and C-terminus assumed)
3 | – | 3000 | CC[C@H](C)[C@H](NC(=O)[C@H](CCC(=O)O)NC(=O)[C@H](Cc1c[nH]cn1)NC(=O)[C@H](CC(N)=O)NC(=O)[C@H](C)NC(=O)[C@H](CS)NC(=O)[C@H](CC(=O)O)NC(=O)[C@H](CCCCN)NC(=O)[C@@H](NC(=O)[C@H](CC(=O)O)NC(=O)[C@@H](NC(=O)[C@H](CCC(N)=O)NC(=O)[C@@H](N)CC(=O)O)C(C)C)C(C)C)C(=O)N[C@@H](CCCCN)C(=O)N[C@@H](CCCCN)C(=O)N[C@H](C(=O)N[C@@H](CC(C)C)C(=O)N[C@H](C(=O)N1CCC[C@H]1C(=O)NCC(=O)N[C@@H](CS)C(=O)N[C@@H](Cc1c[nH]cn1)C(=O)NCC(=O)N[C@@H](CO)C(=O)N[C@@H](CCC(=O)O)C(=O)O)C(C)C)C(C)C [AllerDM2.3] (H-DQVDVKDCANHEIKKVLVPGCHGSE-OH; N-terminus and C-terminus assumed)
